According to doi:10.1101/2025.03.13.643086, “Granzyme-targeting quenched activity-based probes for assessing tumor response to immunotherapy” (bioRxiv, 2025):
Non-standard residues stand in square brackets, D forms with d. Residues, ends and D or L forms follow the SMILES beside them. *: point of attachment. Abu(4-SO3H) = N[C@@H](CCS(=O)(=O)O)C(=O)O; ACC = NC(=O)Cc1cc(=O)oc2cc(N*)ccc12; Cya = N[C@@H](CS(=O)(=O)O)C(=O)O

What was measured:
Casp-8 = Casp-8 (Homo sapiens, UniProt Q14790); assay: Enzyme cleavage assay / Michaelis-Menten kinetics of fluorogenic substrates with Casp-8; assay type: biochemical; conditions: 100 μM substrate, 5 nM Casp-8, 1 h, V0 normalized to 1
Description: (§1) Figure 1. Isosteric substitution of carboxylic acid at P1 with sulfonic acid enhances selectivity for GzmB over Casp-8. (A) Chemical structures of tetrapeptide fluorogenic substrates 1-4. (B) Enzyme cleavage assay. 100 μM of each substrate was incubated with either recombinant human active GzmB (10 nM) or Casp-8 (5 nM) and fluorescence was measured at Ex/Em: 380/460 nm for 1 h. The initial velocity (V0) of each substrate was normalized to that of the control substrate Ac-IEPD-ACC (1). […] (C) Kinetic measurement. The Michaelis-Menten plot and kinetic parameters were generated with varying concentrations of each substrate 1 and 2 incubated with recombinant human active GzmB (10 nM) and Casp-8 (5 nM). […] (D) Chemical structures of inhibitors 5-7. (E) GzmB inhibition. Recombinant human active GzmB (2 U/μL) was incubated with varying concentrations of each inhibitor and the residual activity of GzmB was measured by the cleavage of Ac-IEPD-AMC fluorogenic substrate and normalized to DMSO control.
(§2) All kinetic experiments were performed on a spectrofluorometer (Biotek cytation5 or Synergy|Mx microplate reader) and analyzed using Microsoft Excel and GraphPad Prism. […]
(§3) (v/v) Tween-20, pH 7.5. Assay buffers were prepared at room temperature while the kinetic experiments were performed at 37 °C. Data are presented as the mean with standard deviation (at least two independent experiments). […]
(§4) (#BML-SE238-5000) and diluted in assay buffer. Conditions for individual experiments are […]
(§5) Figure 1B-C: 10 nM of active GzmB or 5 nM of Casp-8 were treated with different substrates (compounds 1-4) and recorded fluorescence (Ex/Em: 380/460 nm) for 1 h at 37 °C. To determine Michaelis-Menten constants, cleavage assays with 10 nM of GzmB or 5 nM of Casp-8 were performed with different concentrations of substrates 1 and 2. […]
Working concentrations were prepared by further diluting in the assay buffer before use. […] In-gel fluorescence images were acquired on a Typhoon FLA9500 instrument while western blot and Coomassie staining images were acquired on an AMHERST ImageQuant 800 instrument.

[1] = biological target: recombinant human active GzmB (Homo sapiens, UniProt P10144); assay: Enzyme cleavage assay / Michaelis-Menten kinetics of fluorogenic substrates with GzmB; assay type: biochemical; conditions: 10 nM GzmB
Sequence of recombinant human active GzmB (P10144 21-247): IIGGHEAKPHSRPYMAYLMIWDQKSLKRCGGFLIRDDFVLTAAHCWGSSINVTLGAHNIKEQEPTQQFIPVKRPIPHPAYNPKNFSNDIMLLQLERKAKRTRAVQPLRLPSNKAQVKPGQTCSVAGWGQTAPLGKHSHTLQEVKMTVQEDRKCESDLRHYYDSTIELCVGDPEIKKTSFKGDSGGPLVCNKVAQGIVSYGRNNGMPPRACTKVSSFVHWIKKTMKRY
Description: as §1, §2
(v/v) Tween-20, pH 7.5. Assay buffers were prepared at room temperature while the kinetic experiments were performed at 37 °C. Data are presented as the mean with standard deviation (at least two independent experiments). For kinetic experiments, pro-GzmB (0.22 mg/mL) was activated with mouse cathepsin C (22 µg/mL in 50 mM MES, 50 mM NaCl, pH 5.5) and diluted in assay buffer. Alternatively, active GzmB at 100 U/µL was purchased from Enzo Life Sciences (#BML-SE238-5000) and diluted in assay buffer. Conditions for individual experiments are […]
as §5
(§6) Working concentrations were prepared by further diluting in the assay buffer before use. Mouse pro-GzmB (0.474 mg/mL) was also activated with mCatC (52.14 µg/mL in 50 mM MES, 50 mM NaCl, pH 5.5), diluted in assay buffer and stored as 500 nM aliquots at - 80 °C, which were further diluted in assay buffer to make final working concentrations. In-gel fluorescence images were acquired on a Typhoon FLA9500 instrument while western blot and Coomassie staining images were acquired on an AMHERST ImageQuant 800 instrument.

[2] = substrate: CC[C@H](C)[C@H](NC(C)=O)C(=O)N[C@@H](CCC(=O)O)C(=O)N1CCC[C@H]1C(=O)N[C@@H](CS(=O)(=O)O)C(=O)Nc1ccc2c(CC(N)=O)cc(=O)oc2c1; assay: Enzyme cleavage assay / Michaelis-Menten kinetics of fluorogenic substrates with Casp-8; assay type: biochemical, human; conditions: other: 5 nM Casp-8, varying substrate concentrations, 37 °C
Description: as §1, §2, §3, §4, §5, §6

[3] = substrate: CC[C@H](C)[C@H](NC(C)=O)C(=O)N[C@@H](CCC(=O)O)C(=O)N1CCC[C@H]1C(=O)N[C@@H](CC(=O)O)C(=O)Nc1ccc2c(CC(N)=O)cc(=O)oc2c1; assay: as above; assay type: biochemical, human; conditions: other: 5 nM Casp-8, varying substrate concentrations, 37 °C
Description: as §1, §2, §3, §4, §5, §6

[4] = 100 μM substrate, 1 h, V0 normalized to 1

CC[C@H](C)[C@H](NC(C)=O)C(=O)N[C@@H](CCS(=O)(=O)O)C(=O)N1CCC[C@H]1C(=O)N[C@@H](CS(=O)(=O)O)C(=O)Nc1ccc2c(CC(N)=O)cc(=O)oc2c1 [Compound 4] (Ac-I[Abu(4-SO3H)]P[Cya]-{ACC})
cleavage by Casp-8 compared to Ac-IEPD-ACC (1), in words (Casp-8): decreasing cross-reactivity with Casp-8 | cleavage by GzmB compared to Ac-IEPD-ACC (1), in words [1, 4]: routed for cleavage by GzmB

CC[C@H](C)[C@H](NC(C)=O)C(=O)N[C@@H](CCS(=O)(=O)O)C(=O)N1CCC[C@H]1C(=O)N[C@@H](CC(=O)O)C(=O)Nc1ccc2c(CC(N)=O)cc(=O)oc2c1 [Compound 3] (Ac-I[Abu(4-SO3H)]PD-{ACC})
cleavage by Casp-8 compared to Ac-IEPD-ACC (1), in words (Casp-8): increased cleavage by Casp-8 | cleavage by GzmB compared to Ac-IEPD-ACC (1), in words [1, 4]: reduced cleavage by GzmB

CC[C@H](C)[C@H](NC(C)=O)C(=O)N[C@@H](CCC(=O)O)C(=O)N1CCC[C@H]1C(=O)N[C@@H](CS(=O)(=O)O)C(=O)Nc1ccc2c(CC(N)=O)cc(=O)oc2c1 [Compound 2, Ac-IEPCya-ACC] (Ac-IEP[Cya]-{ACC})
cleavage by Casp-8 compared to Ac-IEPD-ACC (1), in words (Casp-8): cleavage by Casp-8 was reduced | increase in turnover (kcat) for GzmB compared to Ac-IEPD-ACC (1) [1]: 10 fold | cleavage efficiency by GzmB compared to Ac-IEPD-ACC (1) [1, 4]: 6 fold

B1: Casp-8 (Homo sapiens) (protein)
chain 1: SESQTLDKVYQMKSKPRGYCLIINNHNFAKAREKVPKLHSIRDRNGTHLDAGALTTTFEELHFEIKPHDDCTVEQIYEILKIYQLMDHSNMDCFICCILSHGDKGIIYGTDGQEAPIYELTSQFTGLKCPSLAGKPKVFFIQACQGDNYQKGIPVETD
chain 2: LSSPQTRYIPDEADFLLGMATVNNCVSYRNPAEGTWYIQSLCQSLRERCPRGDDILTILTEVNYEVSNKDDKKNMGKQMPQPTFTLRKKLVFPSD
Km [2]: 506.3 µM | kcat [2]: 0.087 s⁻¹ | kcat/Km [2]: 172 M⁻¹ s⁻¹ | Km [3]: 359.9 µM | kcat [3]: 0.090 s⁻¹ | kcat/Km [3]: 250 M⁻¹ s⁻¹
